In one data set the test system is HeLa. The data set is described as follows: Quantification of drug sensitivity (CellTiter-Blue), HeLa. The class given is cell-based. To be noted: HeLa (cervix carcinoma), 72 h, 30-fold excess 2-hydroxypropyl-β-cyclodextrin, combination DSF/ATM 1:1. The protocol:
(§1) Quantification of drug sensitivity (Figure 2A): Cell lines (including HT‐29) were obtained from ATCC or as gifts from other research groups at the DKFZ and checked for mycoplasma contamination and authenticity before use. Cell lines were seeded in 96‐well plates in RPMI‐1640 medium, supplemented with 10 % BCS (bovine calf serum) and 1 % Pen/Strep at a density of 2×10^4 cells/well. Disulfiram (DSF) and sodium aurothiomalate (ATM) were added at a fixed ratio of 1 : 1, formulated in a 30‐fold molar excess of 2HP‐β‐CD (2‐hydroxypropyl‐β‐cyclodextrin). ATM and DSF monotherapy was also done in the presence of 2HP‐β‐CD, to control for possible combination effects by 2HP‐β‐CD. All concentrations were applied in triplicate. After incubation at 37 °C for 72 h, CellTiter‐Blue (Promega) was added (10 μL/well). After incubation at 37 °C for 4 h, fluorescence (excitation filter: 550 nm, emission filter 590 nm) was determined in an Optima FLUOstar microplate reader (BMG Labtech). Mean values were calculated for each treatment and EC50 values were calculated from […] dose response curves.
In general terms: The colour change of resazurin is a common sign of viable cells or microbes.

A further data set has as its system SK-OV-3. As to the kind of experiment: Quantification of drug sensitivity (CellTiter-Blue), SK-OV-3. The class given is cell-based. The conditions noted are these: SK-OV-3 (ovarian carcinoma), 72 h, 30-fold excess 2-hydroxypropyl-β-cyclodextrin, combination DSF/ATM 1:1. The protocol:
as §1

In the next data set the test system is Calu-6 cells. As to the kind of experiment: Quantification of drug sensitivity (CellTiter-Blue), Calu-6. To be noted: Calu-6 (NSCLC), 72 h, 30-fold excess 2-hydroxypropyl-β-cyclodextrin, combination DSF/ATM 1:1. The class given is cell-based. The protocol: as §1
Dose-Response Curves of ATM/DSF and 5
Figure S2: Dose-response curves of the s toichiometric mixture of ATM and DSF (blue) as well
as isolated 5 (red) for the treatment of Calu-6 cells (both in the presence of 30-fold excess of 2-
(also on this page, place not known: Normalized Proliferation (CellTiter-Blue) stoichiometric) […]

In another data set the test system is COLO-357. The data set is described as follows: Quantification of drug sensitivity (CellTiter-Blue), COLO-357. The class given is cell-based. The conditions noted are these: COLO-357 (pancreatic cancer), 72 h, 30-fold excess 2-hydroxypropyl-β-cyclodextrin, combination DSF/ATM 1:1. The protocol: as §1
In a further data set the test system is MeWo. The data set is described as follows: Quantification of drug sensitivity (CellTiter-Blue), MeWo. The class given is cell-based. To be noted: MeWo (melanoma), 72 h, 30-fold excess 2-hydroxypropyl-β-cyclodextrin, combination DSF/ATM 1:1. The protocol:
as §1

For a further data set, the system named is HL-60. The data set is described as follows: Quantification of drug sensitivity (CellTiter-Blue), HL-60. The class given is cell-based. To be noted: HL-60 (non-T cell leukemia), 72 h, 30-fold excess 2-hydroxypropyl-β-cyclodextrin, combination DSF/ATM 1:1. The protocol: as §1
The next data set concerns HCT 116. As to the kind of experiment: Quantification of drug sensitivity (CellTiter-Blue), HCT 116. It counts as cell-based. The conditions noted are these: HCT 116 (colon carcinoma), 72 h, 30-fold excess 2-hydroxypropyl-β-cyclodextrin, combination DSF/ATM 1:1. The protocol:
as §1

Data set [1] concerns cytoplasmic ROS in H838 cells (roGFP2-Orp1). The data set is described as follows: ROS level in cytoplasm, roGFP2-Orp1 sensor. It counts as cell-based. To be noted: 12.5 μM, DMSO stock or up to 32-fold excess of SBE-β-CD. The protocol: (§2) Measurement of ROS levels in cytoplasm and mitochondria (Figure 8): The effects of 33 and auranofin on roGFP2‐Orp1 oxidation were quantified in H838 cells stably expressing roGFP2‐Orp1 targeted either to cytoplasm or mitochondria as described in Ezerina et al.[28] Specifically, a 5 mM stock solution of 33 was prepared by directly dissolving solid 33 into 10 mM, 40 mM, 80 mM, and 160 mM solutions of SBE‐β‐CD (Biomol) in PBS (Gibco). A 100 mM auranofin (Sigma‐Aldrich) solution was prepared in DMSO (Sigma‐Aldrich). This was further diluted to 0.5 mM stock solutions of auranofin in 0 mM, 4 mM, 8 mM, and 16 mM SBE‐β‐CD in PBS. […] Non‐transduced H838 cells were seeded on the same plate to establish background fluorescence. The fluorescence intensity from these wells was subtracted from all the measurement results. To establish the signal baseline, the entire plate was measured every 3 min for 8 cycles in a CLARIOstar fluorescence plate reader (BMG Labtech), with excitation wavelengths of 400 nm and 485 nm, while measuring emission at 520 nm. […] The readout of the roGFP2 measurement is normalized to the positive (1.0) and the negative (0) controls using the following equation: OxDroGFP2=(I400sampleI485red)-(I400redI485sample)/(I400sample)I485red-I485ox+(I485sampleI400ox-I400red)
(§3) where I400 and I485 are the signal intensities measured at 520 nm after excitation at 400 nm and 485 nm, respectively. […]

In data set [2] the test system is mitochondrial ROS in H838 cells (roGFP2-Orp1). The data set is described as follows: ROS level in mitochondria, roGFP2-Orp1 sensor. The conditions noted are these: 12.5 μM, DMSO stock or up to 32-fold excess of SBE-β-CD. It counts as cell-based. The protocol:
as §2, §3

Data set [3] can be described thus: Solubility / solubilization in solvents and cyclodextrin (observations). The class given is physicochemical.

The values that follow come from paper PMC8456977, “Inclusion Complexes of Gold(I)‐Dithiocarbamates with β‐Cyclodextrin: A Journey from Drug Repurposing towards Drug Discovery” (Chemistry (Weinheim an Der Bergstrasse, Germany), 2021).

Where only a bound is given, the exact number is not on record here.

For the compound `O=C([O-])CC([S-])C(=O)[O-].[Au+].[Na+].[Na+]` (stereo not shown) [ATM, sodium aurothiomalate], the half-maximal effective concentration (EC50) (commonly the concentration needed to bring the measured effect to its halfway point) came to 440 µM in the data set with HeLa; 260 µM in the data set with SK-OV-3; 360 µM in the data set with Calu-6 cells; 96 µM in the data set with COLO-357; 130 µM with MeWo; 330 µM in the data set with HL-60. Besides, the half-maximal effective concentration (EC50) in the data set with HCT 116 stood at 140 µM.

`CCN(CC)C(=S)SSC(=S)N(CC)CC` [DSF, disulfiram]: the EC50 was 320 µM in the data set with HeLa (Homo sapiens); 340 µM in the data set on SK-OV-3 (Homo sapiens); 160 µM in the data set with Calu-6 cells (Homo sapiens); 82 µM in the data set on COLO-357 (Homo sapiens, COLO357); 290 µM in the data set with MeWo (Homo sapiens); 120 µM in the data set with HL-60 (Homo sapiens). Moreover, in the data set with HCT 116 (Homo sapiens), the half-maximal effective concentration (EC50) is 3.4 µM.

Take `CC(=O)OC[C@H]1O[C@@H]([S-])[C@H](OC(C)=O)[C@@H](OC(C)=O)[C@@H]1OC(C)=O.CCP(CC)CC.[Au+]` [auranofin]: the “cytoplasmic ROS (roGFP2-Orp1 oxidation)” value in data set [1] is recorded as “high levels of ROS”. Also, the “mitochondrial ROS (roGFP2-Orp1 oxidation)” value in [2] was “high levels of ROS”.

For [Au(N,N‐diethyl)dtc]2 [compound 5], the EC50 in the data set on Calu-6 cells was found to be 1.6 µM. In addition, the “cyclodextrin required for solubilization” value in data set [3] was above 30 molar equivalents. In addition, the “solubility in common/organic solvents” value in data set [3] (organic solvents including DMSO, ambient temperature) is “poor solubility”.
